We go through 16 molecules from US20080026996A1, “Selective Vpac2 Receptor Reptide Agonists” (ELI LILLY AND COMPANY, priority 2004, published 2008).

The target of series [1] is T1, human VPAC1 (Homo sapiens, UniProt P32241).
T1 sequence (P32241 31-457): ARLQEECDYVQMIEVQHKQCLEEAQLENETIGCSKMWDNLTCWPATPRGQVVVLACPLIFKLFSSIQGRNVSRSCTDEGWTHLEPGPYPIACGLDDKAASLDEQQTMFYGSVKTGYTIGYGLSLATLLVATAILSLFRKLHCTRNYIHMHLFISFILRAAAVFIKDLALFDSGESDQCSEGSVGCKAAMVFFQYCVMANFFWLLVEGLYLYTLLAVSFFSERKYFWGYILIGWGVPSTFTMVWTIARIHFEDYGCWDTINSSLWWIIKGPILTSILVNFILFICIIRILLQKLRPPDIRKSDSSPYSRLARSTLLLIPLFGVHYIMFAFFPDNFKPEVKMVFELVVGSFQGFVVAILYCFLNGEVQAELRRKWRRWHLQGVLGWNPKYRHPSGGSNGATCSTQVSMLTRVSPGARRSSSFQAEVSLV
The series is described as follows: Filter binding assay, membranes of cells transiently transfected with human VPAC1, 125I-labeled VIP tracer (Table 2). Set-up: expressed in transfected cells. Conditions: read-out: Human VPAC1 Receptor Binding. An outline of the steps:
(§1)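 Competition binding of agonists against radiotracer on receptor membranes (2.5 μg) in 25 mM HEPES pH 7.4 with 0.5% protease-free BSA, about 40000 cpm tracer, 1 hour with shaking. Bound tracer was separated by filtration on PEI-presoaked, BSA-blocked glass-fibre filters, washed and counted by scintillation.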

Series [2] in a line: Rat serum stability studies (remaining active peptide by DiscoveRx cAMP on CHO-VPAC2 cells). Type of series: in vitro ADME. The method, then: Store the aliquot with aprotinin at 4° C. Store the aliquot without aprotinin at 37° C. […] […] Incubate in room temperature for 30 minutes. Remove the supernatant. […] Incubate on the shaker (300 rpm) for 1 hour. Proceed as normal with the DiscoveRx kit. Include cAMP standards in column 12. Determine EC50 values from the cAMP assay data.

Series [3] has as its target T2, human VPAC2 (Homo sapiens, UniProt P41587).
T2 construct: expressed in transfected cells
T2 sequence (P41587 24-438): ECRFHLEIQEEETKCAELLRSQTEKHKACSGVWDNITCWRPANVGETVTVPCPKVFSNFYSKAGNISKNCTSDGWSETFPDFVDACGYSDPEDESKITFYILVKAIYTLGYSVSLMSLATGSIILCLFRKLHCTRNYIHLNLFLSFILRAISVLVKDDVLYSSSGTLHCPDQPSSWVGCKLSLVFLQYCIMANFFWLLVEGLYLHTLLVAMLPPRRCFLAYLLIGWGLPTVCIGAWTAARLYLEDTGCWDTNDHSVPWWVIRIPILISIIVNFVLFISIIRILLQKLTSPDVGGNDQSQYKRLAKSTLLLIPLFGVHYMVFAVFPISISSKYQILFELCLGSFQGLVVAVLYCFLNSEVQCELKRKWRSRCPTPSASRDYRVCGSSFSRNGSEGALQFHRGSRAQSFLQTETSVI
Kind of series: Filter binding assay, membranes of stable VPAC2 cell line, 125I-labeled VIP tracer (Table 2). Conditions: read-out: Human VPAC2 Receptor Binding. Put shortly:
as §1

Series [4] deals with T2, human VPAC2. Kind of series: Alpha screen cAMP in vitro potency, human VPAC2 receptor. Conditions: cAMP generation; single result from two analyses performed in a single run; read-out: Human VPAC2 Receptor: Alpha Screen EC50. The format is cell-based. Put shortly:
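This followed a 60 min stimulation of 50,000 enzyme-free-dissociated cells per point with acceptor beads in stimulation buffer.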

In series [5] the target is T3, human PAC1 (Homo sapiens, UniProt P41586).
T3 sequence (P41586 21-468): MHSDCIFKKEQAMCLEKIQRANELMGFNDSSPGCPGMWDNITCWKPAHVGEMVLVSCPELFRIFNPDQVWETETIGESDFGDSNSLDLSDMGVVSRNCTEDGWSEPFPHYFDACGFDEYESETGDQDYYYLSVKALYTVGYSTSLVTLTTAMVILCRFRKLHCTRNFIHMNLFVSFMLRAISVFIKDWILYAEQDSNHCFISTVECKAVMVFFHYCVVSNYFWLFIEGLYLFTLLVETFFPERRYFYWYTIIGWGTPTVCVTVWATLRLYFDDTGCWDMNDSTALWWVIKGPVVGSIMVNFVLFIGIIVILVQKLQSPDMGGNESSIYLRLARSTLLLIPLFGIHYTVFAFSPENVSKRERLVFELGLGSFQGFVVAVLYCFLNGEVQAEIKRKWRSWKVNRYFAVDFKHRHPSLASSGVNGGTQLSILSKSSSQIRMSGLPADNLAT
Kind of series: Filter binding assay, membranes of cells transiently transfected with human PAC1, 125I-labeled PACAP-27 tracer (Table 2). Set-up: expressed in transfected cells. Conditions: read-out: Human PAC1 Receptor Binding. An outline of the steps: as §1

Where a SMILES comes first, the peptide text is derived from it. Where no end group is shown, it is not given here. [ ]: non-standard residue; d: D form. The star is where a group is joined. Orn = NCCC[C@H](N)C(=O)O; Hexanoyl = CCCCCC(=O)*; Aib = CC(C)(N)C(=O)O; Mpa = O=C(O)CCS

A word on the EC50: it is the concentration that produces a half-maximal response.

“Hexanoyl-HSDA[dV]FTDNYTRLRKQVAAKKYLQSIKNKRYGGPSSGAPPPS [Agonist P210]”: the values for the IC50 in series [1] and in series [3] were 395 nM and 0.68 nM, respectively. Besides, the “Rat Serum Stability (estimated purity in % after 18 hours)” value in series [2] is given as less than 0.91%.

In the case of `CCCCCC(=O)N[C@@H](Cc1c[nH]cn1)C(=O)N[C@@H](CO)C(=O)N[C@@H](CC(=O)O)C(=O)N[C@@H](C)C(=O)N[C@H](C(=O)N[C@@H](Cc1ccccc1)C(=O)N[C@H](C(=O)N[C@@H](CC(=O)O)C(=O)N[C@@H](CC(N)=O)C(=O)N[C@@H](Cc1ccc(O)cc1)C(=O)N[C@H](C(=O)N[C@@H](CCCN)C(=O)N[C@@H](CC(C)C)C(=O)N[C@@H](CCCNC(=N)N)C(=O)NC(C)(C)C(=O)N[C@@H](CCC(N)=O)C(=O)N[C@@H](CC(C)C)C(=O)N[C@@H](C)C(=O)N[C@@H](C)C(=O)NC(C)(C)C(=O)N[C@@H](CCCCN)C(=O)N[C@@H](Cc1ccc(O)cc1)C(=O)N[C@@H](CC(C)C)C(=O)N[C@@H](CCC(N)=O)C(=O)N[C@@H](CO)C(=O)N[C@H](C(=O)N[C@@H](CCCN)C(=O)N[C@@H](CC(N)=O)C(=O)N[C@@H](CCCN)C(=O)NCC(=O)NCC(=O)N1CCC[C@H]1C(=O)N[C@@H](CO)C(=O)N[C@@H](CO)C(=O)NCC(=O)N[C@@H](C)C(=O)N1CCC[C@H]1C(=O)N1CCC[C@H]1C(=O)N1CCC[C@H]1C(=O)N[C@@H](CO)C(=O)O)[C@@H](C)CC)[C@@H](C)O)[C@@H](C)O)C(C)C` [Agonist P364] (Hexanoyl-HSDAVFTDNYT[Orn]LR[Aib]QLAA[Aib]KYLQSI[Orn]N[Orn]GGPSSGAPPPS-OH; C-terminus assumed), the EC50 in series [4] is 0.11 nM. In series [2], the “Rat Serum Stability (estimated purity in % after 18 hours)” value is on record as 86.23%.

“[Mpa]HSDAVFTDNYTRLLAKLALQKYLQSIKNKRYGGPSSGAPPPS [Agonist P205]”: the EC50 in series [4] stood at 1.14 nM. Further, the “Rat Serum Stability (estimated purity in % after 18 hours)” value in series [2] is given as 35.02%.

As to “Hexanoyl-HSDAVFTDNYTRLRKQVAAKK[Aib]LQSIKNKRYGGPSSGAPPPS [Agonist P228]”, in series [2], the “Rat Serum Stability (estimated purity in % after 18 hours)” value is less than 5.00%.

On to “Hexanoyl-HSDAVFTDNYT[Aib]LR[Aib]QVAA[Aib]KYLQSIKNKRYGGPSSGAPPPS [Agonist P345]”, for which the IC50 in series [1] is greater than 3000 nM; in series [3], 19.3 nM. In addition, the “Rat Serum Stability (estimated purity in % after 18 hours)” value in series [2] is 20.23%.

As to “Hexanoyl-HSDAVFTDNYTRL[Aib]KQVAAKQYLQSIKNKRYGGPSSGAPPPS [Agonist P249]”, the “Rat Serum Stability (estimated purity in % after 18 hours)” value in series [2] is 12.9%.

In the case of `CCCCCC(=O)N[C@@H](Cc1c[nH]cn1)C(=O)N[C@@H](CO)C(=O)N[C@@H](CC(=O)O)C(=O)N[C@@H](C)C(=O)N[C@H](C(=O)N[C@@H](Cc1ccccc1)C(=O)N[C@H](C(=O)N[C@@H](CC(=O)O)C(=O)N[C@@H](CC(N)=O)C(=O)N[C@@H](Cc1ccc(O)cc1)C(=O)N[C@H](C(=O)N[C@@H](CCCNC(=N)N)C(=O)N[C@@H](CC(C)C)C(=O)N[C@@H](CCCNC(=N)N)C(=O)NC(C)(C)C(=O)N[C@@H](CCC(N)=O)C(=O)N[C@H](C(=O)N[C@@H](C)C(=O)N[C@@H](C)C(=O)NC(C)(C)C(=O)N[C@@H](CCCCN)C(=O)N[C@@H](Cc1ccc(O)cc1)C(=O)N[C@@H](CC(C)C)C(=O)N[C@@H](CCC(N)=O)C(=O)N[C@@H](CO)C(=O)N[C@H](C(=O)N[C@@H](CCCN)C(=O)N[C@@H](CCC(N)=O)C(=O)N[C@@H](CCCN)C(=O)NCC(=O)NCC(=O)N1CCC[C@H]1C(=O)N[C@@H](CO)C(=O)N[C@@H](CO)C(=O)NCC(=O)N[C@@H](C)C(=O)N1CCC[C@H]1C(=O)N1CCC[C@H]1C(=O)N1CCC[C@H]1C(=O)N[C@@H](CO)C(=O)O)[C@@H](C)CC)C(C)C)[C@@H](C)O)[C@@H](C)O)C(C)C` [Agonist P356], the “Rat Serum Stability (estimated purity in % after 18 hours)” value in series [2] is 45.17%.

Regarding `CCCCCC(=O)N[C@@H](Cc1c[nH]cn1)C(=O)N[C@@H](CO)C(=O)N[C@@H](CC(=O)O)C(=O)N[C@@H](C)C(=O)N[C@H](C(=O)N[C@@H](Cc1ccccc1)C(=O)N[C@H](C(=O)N[C@@H](CC(=O)O)C(=O)N[C@@H](CC(N)=O)C(=O)N[C@@H](Cc1ccc(O)cc1)C(=O)N[C@H](C(=O)N[C@@H](CCCNC(=N)N)C(=O)N[C@@H](CC(C)C)C(=O)N[C@@H](CCCNC(=N)N)C(=O)N[C@@H](CCCCN)C(=O)N[C@@H](CCC(N)=O)C(=O)N[C@H](C(=O)N[C@@H](C)C(=O)N[C@@H](C)C(=O)N[C@@H](CCCCN)C(=O)N[C@@H](CCCCN)C(=O)N[C@@H](Cc1ccc(O)cc1)C(=O)N[C@@H](CC(C)C)C(=O)N[C@@H](CCC(N)=O)C(=O)N[C@@H](CO)C(=O)N[C@H](C(=O)N[C@@H](CCCCN)C(=O)N[C@@H](CC(N)=O)C(=O)NCC(=O)N[C@@H](CCCNC(=N)N)C(=O)N1CCC[C@H]1C(=O)N[C@@H](CO)C(=O)N[C@@H](CO)C(=O)NCC(=O)N[C@@H](C)C(=O)N1CCC[C@H]1C(=O)N1CCC[C@H]1C(=O)N1CCC[C@H]1C(=O)N[C@@H](CO)C(=O)O)[C@@H](C)CC)C(C)C)[C@@H](C)O)[C@@H](C)O)C(C)C` [Agonist P271] (Hexanoyl-HSDAVFTDNYTRLRKQVAAKKYLQSIKNGRPSSGAPPPS-OH; C-terminus assumed), the EC50 in series [4] was determined as 0.12 nM. For the same molecule, the IC50 in series [1] came to 67.6 nM; in series [5], 352 nM; in series [3], 0.14 nM.

In the case of “Hexanoyl-HSDAVFTDNYTRLRKQVAGKKYLQSIKNKRYGGPSSGAPPPS [Agonist P275]”, the EC50 in series [4] worked out at 0.32 nM. Besides, the values for the IC50 in series [1], in series [5] and in series [3] were 558 nM, 630 nM and 0.38 nM, respectively.

With “Hexanoyl-HSDIVFTDNYTRLRKQVAAKKYLQSIKNKRYGGPSSGAPPPS [Agonist P221]”, the “Rat Serum Stability (estimated purity in % after 18 hours)” value in series [2] is recorded as 0.87%.

On to “Hexanoyl-HSDAVFTDNYTRLRKQVAAKKYLQSYKNKRYGGPSSGAPPPS [Agonist P111]”, for which, in series [4], the EC50 was 0.34 nM. In addition, the IC50 in series [1] is 300 nM; in series [5], 258 nM; in series [3], 0.19 nM.

On to “Hexanoyl-HSDLVFTDNYTRLRKQVAAKKYLQSIKNKRYGGPSSGAPPPS [Agonist P223]”, for which, in series [2], the “Rat Serum Stability (estimated purity in % after 18 hours)” value is listed as 1.52%.

Turning to “Hexanoyl-HSDAVFTDNYTRLRKQVAAKKYLQTIKNKRYGGPSSGAPPPS [Agonist P115]”, in series [4], the EC50 came out at 0.2 nM. In addition, the figures for the IC50 in series [1], in series [5] and in series [3] were 267 nM, 190 nM and 0.1 nM, respectively.

For “Hexanoyl-HSDAVFTDQYTRLLAKLALQKYLQSIKQKRYGGPSSGAPPPS [Agonist P192]”, the EC50 in series [4] came out at 0.18 nM. Further, the IC50 worked out at 1430 nM in series [1], 14300 nM in series [5] and 0.53 nM in series [3].

Regarding “Hexanoyl-HSDAVFTDNYTRLRKQVAAKKYLQYIKNKRYGGPSSGAPPPS [Agonist P127]”, the EC50 in series [4] was determined as 0.22 nM. The IC50 in series [1] was determined as 290 nM; in series [5], 209 nM; in series [3], 0.23 nM.

In the case of “Hexanoyl-HSDAVFTDNYTRLRKQVAAKKYLQS[Aib]KNKRYGGPSSGAPPPS [Agonist P188]”, the EC50 in series [4] worked out at 0.32 nM. Further, the IC50 in series [1] is 6.19 nM; in series [5] it was 700 nM; in series [3], 0.29 nM.
